# According to patent US20220016060A1, “USE OF SODIUM 2-(3-PENTYLPHENYL)ACETATE IN THE TREATMENT OF ALSTRÖM SYNDROME” (LIMINAL BIOSCIENCES LIMITED, priority 2018, published 2022):
# “And” between values parts separate entries of the source, which are not always exact repeats. Identical values can stand only once.
# What was measured:
# Type in all cases: in vivo, human
# [1] = tested on: ALMS patients; assay: Non-Alcoholic Fatty Liver Disease (NAFLD) Fibrosis Score; settings: for Change from Baseline NAFLD Score with an FPG > 5.6 mmol/L, Mean (SD) / Change from Baseline NAFLD Score with an FPG > 5.6 mmol/L, Median / NAFLD Fibrosis Score in Subjects with an FPG > 5.6 mmol/L: 800 mg daily oral; for NAFLD Fibrosis Score in Subjects with an FPG > 5.6 mmol/L: individual subjects
# Method: (§1) The study was a Phase 2, single-centre, single-arm, open-label study of sodium 2-(3-pentylphenyl)acetate administered at a total daily oral dose of 800 mg for up to 72 weeks in subjects with ALMS was undertaken. The initial duration of the study was 24 weeks, and subjects were offered to enrol into an extension phase of […]. The schedule of study procedures for the enrolment, intervention, and assessments for participants is outlined in FIG. 1. Sodium 2-(3-pentylphenyl)acetate was formulated in soft gelatine capsules containing 200 mg of Sodium 2-(3-pentylphenyl)acetate (amorphous powder) per capsule, polyethylene glycol 400, National Formulary (NF), hydrochloric acid (for pH adjustment), and water. The effect of sodium 2-(3-pentylphenyl)acetate on liver histology in ALMS patients was also assessed by measuring the Non-Alcoholic Fatty Liver Disease (NAFLD) Fibrosis Score. Increased NAFLD fibrosis score may be associated with hepatic dysfunction.
# [2] = tested on: ALMS patients; assay: Cardiac MRI of myocardial fibrosis (SAX T1); settings: for Change from Baseline Basal SAX T1, Mean / Change from Baseline Basal SAX T1, Median / Change from Baseline Mid SAX T1, Mean / Change from Baseline Mid SAX T1, Median: 800 mg daily oral
# Method: as §1, with “heart” for “liver”, “measuring short-axis (plane) longitudinal relaxation time (SAX T1). A decrease in relaxation time reflects an improvement in heart histology, such as a decrease of myocardial fibrosis, which reduces” for “measuring”, “risk of cardiac failure.” for “Non-Alcoholic Fatty Liver Disease (NAFLD) Fibrosis Score. Increased NAFLD fibrosis score may be associated with hepatic dysfunction.”
# [3] = tested on: ALMS patients; assay: Albumin-to-creatinine ratio (ACR); settings: for Change from Baseline ACR, Mean (SD) / Change from Baseline ACR, Median / ACR: 800 mg daily oral; for ACR: individual subjects, listed as sodium 2-(3-pentylphenypacetate)
# Method: as §1, with “water. Albuminuria, the increase in excretion of urinary albumin, is marker of kidney damage and is assessed by measuring the ACR.” for “water.”, “kidney histology/damage” for “liver histology”, “was” for “was also”, “ACR.” for “Non-Alcoholic Fatty Liver Disease (NAFLD) Fibrosis Score. Increased NAFLD fibrosis score may be associated with hepatic dysfunction.”
# [4] = tested on: ALMS patients; assay: Glycated hemoglobin (HbA1c); settings: for Change from Baseline HbA1c, Mean / Change from Baseline HbA1c, Median / HbA1c: 800 mg daily oral; for HbA1c: individual subjects
# Method: The study was a Phase 2, single-centre, single-arm, open-label study of sodium 2-(3-pentylphenyl)acetate administered at a total daily oral dose of 800 mg for up to 72 weeks in subjects with ALMS was undertaken. The initial duration of the study was 24 weeks, and subjects were offered to enrol into an extension phase of 36 or 48 weeks. The schedule of study procedures for the enrolment, intervention, and assessments for participants is outlined in FIG. 1. Sodium 2-(3-pentylphenyl)acetate was formulated in soft gelatine capsules containing 200 mg of Sodium 2-(3-pentylphenyl)acetate (amorphous powder) per capsule, polyethylene glycol 400, National Formulary (NF), hydrochloric acid (for pH adjustment), and water. Glycated hemoglobin (HbA1c) is measured primarily to determine the three-month average blood sugar level, and is used as a diagnostic test for diabetes mellitus and as an assessment test for glycemic control in people with diabetes. HbA1c was assessed in ALMS patients treated with sodium 2-(3-pentylphenyl)acetate. There was a statistically significant mean decrease of 0.53% (p=0.0144) in HbA1c from baseline after 12 weeks of treatment (Table 16).
# [5] = Subject 826-001-001, 204-day break in treatment
smiles,measurement,setting,value
CCCCCc1cccc(CC(=O)[O-])c1.[Na+] [sodium 2-(3-pentylphenyl)acetate],subjects in whom NAFLD fibrosis score decreased or did not change from baseline,[1]; 7/12 subjects,58.3%
same,"Change from Baseline NAFLD Score with an FPG > 5.6 mmol/L, Mean (SD)","[1]; EP Week 12 (Week 36), N=10",−0.39 (0.683)
same,"Change from Baseline NAFLD Score with an FPG > 5.6 mmol/L, Median","[1]; EP Week 12 (Week 36), N=10",−0.69
same,"Change from Baseline NAFLD Score with an FPG > 5.6 mmol/L, Mean (SD)","[1]; EP Week 24 (Week 48), N=9",−0.34 (0.758)
same,"Change from Baseline NAFLD Score with an FPG > 5.6 mmol/L, Median","[1]; EP Week 24 (Week 48), N=9",−0.28
same,"Change from Baseline NAFLD Score with an FPG > 5.6 mmol/L, Mean (SD)","[1]; EP Week 36 (Week 60), N=9",−0.16 (0.684)
same,"Change from Baseline NAFLD Score with an FPG > 5.6 mmol/L, Median","[1]; EP Week 36 (Week 60), N=9",−0.14
same,increase in NAFLD fibrosis score from baseline,[1]; [5],0.7
same,"Change from Baseline NAFLD Score with an FPG > 5.6 mmol/L, Mean (SD)","[1]; Week 12, N=11",−0.35 (0.582)
same,"Change from Baseline NAFLD Score with an FPG > 5.6 mmol/L, Median","[1]; Week 12, N=11",−0.34
same,"Change from Baseline NAFLD Score with an FPG > 5.6 mmol/L, Mean (SD)","[1]; Week 24, N=9",0.16 (0.446)
same,"Change from Baseline NAFLD Score with an FPG > 5.6 mmol/L, Median","[1]; Week 24, N=9",0.21
same,NAFLD Fibrosis Score in Subjects with an FPG > 5.6 mmol/L,[1]; EP Week 12 (Week 36),−1.9 and −3.1 and −3.8 (4×) and −1.6 and −1.2 and 0.2 and −3.6
same,NAFLD Fibrosis Score in Subjects with an FPG > 5.6 mmol/L,[1]; EP Week 24 (Week 48),−1.9 and −4.4 and −3.0 and −3.8 and −0.8 and −1.0 and −3.1 and 0.5 and −4.2
same,NAFLD Fibrosis Score in Subjects with an FPG > 5.6 mmol/L,[1]; EP Week 36 (Week 60),−1.5 and −3.7 and −2.9 (2×) and −4.2 and −1.1 and 0.2 and −3.4 and −3.8
same,NAFLD Fibrosis Score in Subjects with an FPG > 5.6 mmol/L,[1]; Week 12,−2.5 and −1.8 and −3.9 (2×) and −3.1 and −1.4 and −0.8 (2×) and −3.3 and 0.6 and −4.3
same,NAFLD Fibrosis Score in Subjects with an FPG > 5.6 mmol/L,[1]; Week 24,−1.5 and −1.9 and −2.7 (2×) and −3.8 and −0.2 and −2.9 and −1.0 and −3.7
same,"Change from Baseline Basal SAX T1, Mean","[2]; EP Week 36 (Week 60), N=4",-84.75 ms
same,"Change from Baseline Basal SAX T1, Median","[2]; EP Week 36 (Week 60), N=4",-80.50 ms
same,"Change from Baseline Mid SAX T1, Mean","[2]; EP Week 36 (Week 60), N=4",-54.63 ms
same,"Change from Baseline Mid SAX T1, Median","[2]; EP Week 36 (Week 60), N=4",-51.00 ms
same,"Change from Baseline Basal SAX T1, Mean","[2]; Week 24, N=9",-10.67 ms
same,"Change from Baseline Basal SAX T1, Median","[2]; Week 24, N=9",-1.50 ms
same,"Change from Baseline Mid SAX T1, Mean","[2]; Week 24, N=9",-4.11 ms
same,"Change from Baseline Mid SAX T1, Median","[2]; Week 24, N=9",0.00 ms
same,mean decrease in Basal SAX T1 from baseline,"[2]; after 60 weeks of treatment, p=0.0274",84.75 ms
same,mean decrease in Mid SAX T1 from baseline,"[2]; after 60 weeks of treatment, p=0.0349",54.63 ms
same,"Change from Baseline ACR, Mean (SD)","[3]; EP Week 12 (Week 36), N=10",6.19 (16.707) mg/mmol
same,"Change from Baseline ACR, Median","[3]; EP Week 12 (Week 36), N=10",1.25 mg/mmol
same,"Change from Baseline ACR, Mean (SD)","[3]; EP Week 24 (Week 48), N=10",13.30 (28.301) mg/mmol
same,"Change from Baseline ACR, Median","[3]; EP Week 24 (Week 48), N=10",1.30 mg/mmol
same,"Change from Baseline ACR, Mean (SD)","[3]; EP Week 36 (Week 60), N=9",21.32 (44.461) mg/mmol
same,"Change from Baseline ACR, Median","[3]; EP Week 36 (Week 60), N=9",1.60 mg/mmol
same,increase in ACR from baseline,"[3]; Subject 826-001-003, 32-day break in treatment",13.8 mg/mmol
same,increase in ACR from baseline,"[3]; Subject 826-001-007, 32-day break in treatment",133.8 mg/mmol
same,increase in ACR from baseline,"[3]; Subject 826-001-013, 30-day break in treatment",43.9 mg/mmol
same,"Change from Baseline ACR, Mean (SD)","[3]; Week 12, N=12",10.08 (20.848) mg/mmol
same,"Change from Baseline ACR, Median","[3]; Week 12, N=12",0.90 mg/mmol
same,"Change from Baseline ACR, Mean (SD)","[3]; Week 24, N=11",4.96 (14.993) mg/mmol
same,"Change from Baseline ACR, Median","[3]; Week 24, N=11",0.30 mg/mmol
same,ACR,[3]; EP Week 12 (Week 36),7.5 mg/mmol and 18.0 mg/mmol and 7.9 mg/mmol and 2.0 mg/mmol and 2.2 mg/mmol and 95.0 mg/mmol and <2.3 mg/mmol and 8.6 mg/mmol and 56.3 mg/mmol and 0.6 mg/mmol
same,ACR,[3]; EP Week 24 (Week 48),6.2 mg/mmol and 21.6 mg/mmol and 6.7 mg/mmol and 2.1 mg/mmol and 0.8 mg/mmol and 111.7 mg/mmol and 0.7 mg/mmol and 12.9 mg/mmol and 106.5 mg/mmol and <2.3 mg/mmol
same,ACR,[3]; EP Week 36 (Week 60),6.1 mg/mmol and 21.9 mg/mmol and 19.2 mg/mmol and <2.3 mg/mmol (2×) and 178.3 mg/mmol and 1.9 mg/mmol and 8.6 mg/mmol and 85.4 mg/mmol
same,ACR,[3]; Week 12,4.3 mg/mmol and 22.5 mg/mmol and 24.3 mg/mmol and 14.5 mg/mmol and 0.4 mg/mmol and <2.3 mg/mmol (3×) and 89.2 mg/mmol and 15.1 mg/mmol and 102.9 mg/mmol and 15.6 mg/mmol
same,ACR,[3]; Week 24,4.2 mg/mmol and 15.5 mg/mmol and 14.5 mg/mmol and 10.7 mg/mmol and 2.2 mg/mmol and 77.0 mg/mmol and <2.3 mg/mmol and 13.2 mg/mmol and 77.4 mg/mmol and 10.2 mg/mmol and 1.4 mg/mmol
same,subjects in whom HbA1c decreased or did not change from baseline,[4]; 8/12 subjects,66.7%
same,"Change from Baseline HbA1c, Mean","[4]; EP Week 12 (Week 36), N=10",0.24%
same,"Change from Baseline HbA1c, Median","[4]; EP Week 12 (Week 36), N=10",0.00%
same,"Change from Baseline HbA1c, Mean","[4]; EP Week 24 (Week 48), N=10",−0.28%
same,"Change from Baseline HbA1c, Median","[4]; EP Week 24 (Week 48), N=10",−0.30%
same,"Change from Baseline HbA1c, Mean","[4]; EP Week 36 (Week 60), N=9",−0.18%
same,"Change from Baseline HbA1c, Median","[4]; EP Week 36 (Week 60), N=9",−0.10%
same,"Change from Baseline HbA1c, Mean","[4]; EP Week 48 (Week 72), N=3",0.13%
same,"Change from Baseline HbA1c, Median","[4]; EP Week 48 (Week 72), N=3",0.10%
same,HbA1c increase above baseline by the last study visit,[4]; [5],1%
same,HbA1c reduction below baseline,"[4]; Subjects 826-001-007, 826-001-009 and 826-001-014",1%
same,"Change from Baseline HbA1c, Mean","[4]; Week 12, N=12",−0.53%
same,"Change from Baseline HbA1c, Median","[4]; Week 12, N=12",−0.55%
same,"Change from Baseline HbA1c, Mean","[4]; Week 24, N=12",−0.24%
same,"Change from Baseline HbA1c, Median","[4]; Week 24, N=12",−0.05%
same,mean decrease in HbA1c from baseline,"[4]; after 12 weeks of treatment, p=0.0144",0.53%
same,HbA1c,[4]; EP Week 12 (Week 36),12.7% and 5.1% and 5.4% (3×) and 7.5% and 7.3% and 6.4% and 6.2% and 12%
same,HbA1c,[4]; EP Week 24 (Week 48),10.6% (2×) and 4.9% and 4.7% and 5.7% and 6.8% and 5.4% and 6.5% and 6.3% and 6.7%
same,HbA1c,[4]; EP Week 36 (Week 60),11.2% and 5.1% and 5.0% and 7.5% and 5.4% and 6.8% (2×) and 6.4% and 9.1%
same,HbA1c,[4]; EP Week 48 (Week 72),11.1% and 5.0% and 4.9%
same,HbA1c,[4]; Week 12,10.1% and 5.3% and 5.0% and 5.7% (2×) and 8.2% and 5.5% and 6.7% and 6.1% and 10.6% and 6.4% and 6.5%
same,HbA1c,[4]; Week 24,11.1% and 5.4% (2×) and 4.8% and 5.6% and 9.1% and 7.0% and 6.2% and 10.0% and 6.6% and 8.6% and 6.1%
